Test results: article PMC6008883, “Identification of Peptide Antagonists to Thioredoxin Glutathione Reductase of Schistosoma japonicum” (BioMed Research International, 2018)

What was measured:
[1] = test system: SjTGR; assay: Phage binding to recombinant SjTGR by ELISA; design: species or system Schistosoma japonicum; details: mean of triplicates; for Binding to SjTGR (ELISA OD450nm): phage 1×10^12 pfu/ml, HRP-conjugated anti-M13 antibody, TMB, positive if OD450nm 2.1 times above negative control, binding decreased with decreasing titers
Experimental: Phage clones were amplified according to the manual. A 96-well plate was coated with 100 μl of SjTGR solution (10 μg/ml, 0.1 M NaHCO3, pH 8.6) overnight at 4°C. After blocking with PBS containing 5% milk powder at rt for 1 h, 100 μl of phage solution with titers of 1 x 10^12, 2.5 x 10^11, 6 x 10^10, 1.5 x 10^10, and 3.75 x 10^9 pfu/ml was used per well, respectively. The phage library was set as the negative phage control. Following an incubation at 37°C for 2 h and six washes with TBST (0.5% Tween-20), 200 μl of diluted HRP-conjugated anti-M13 monoclonal antibody solution was added for 1 h at rt. Following six washes with TBST, 100 μl of substrate TMB solution was added for 10 minutes at rt. 50 μl of 2 M sulfuric acid solution (H2SO4) was added to terminate the reaction and absorbance at 450nm was measured. OD450nm values 2.1 times above the negative control value were considered positive.

[2] = test system: Grx of SjTGR (thioredoxin glutathione reductase of Schistosoma japonicum); assay: Inhibition of Grx activity of SjTGR; type: biochemical; details: phage clone, 10^11 pfu; SjTGR 48 nM; vs activity of SjTGR without phage; repeated three times; P<0.01 vs phage library for JIPDys1, JIPDys3
Experimental: (§1) To assess the inhibitory action of phages, the activities of TrxR, GR, and glutaredoxin (Grx) of SjTGR were assayed as described in [21]. 10 μl (10^14 pfu/ml) of phage solution was added to the reaction system, phage library was used as negative phage control, and the effect of phages on the activity of SjTGR was expressed as percentage inhibition: Inhibition percentage = (activity of SjTGR – activity of SjTGR with isolated phage)/activity of SjTGR. The experiment was repeated three times.
(§2) The activities of TrxR, GR, and Grx of SjTGR were assayed with different concentrations (0.5 μM, 1 μM, and 2 μM) of the synthesized peptide JIPDys1 to determine the 50% inhibitory concentration (IC50), and the same amount of PBS was added to the system as control. The experiment was repeated three times. The IC50 values were calculated by curve fitting using the SPSS 13.0 software.
(§3) All data are given as the mean ± standard deviation (SD). The activities of TrxR, GR, and Grx of SjTGR (absorbance/S (ΔA/S)) with JIPDys1, JIPDys2, JIPDys3, and JIPDys4 were statistically compared with the negative phage control (phage library) using two-tailed Student's t-tests. The activities of TrxR, GR, and Grx of SjTGR (absorbance/S (ΔA/S)) with the synthesized peptide were statistically compared with PBS control using two-tailed Student's t-tests, too. SPSS 13.0 was used for the statistical analyses. Differences between mean values were considered to be significant at the level of 5%.

[3] = test system: TrxR of SjTGR (thioredoxin glutathione reductase of Schistosoma japonicum); assay: Inhibition of TrxR activity of SjTGR; type: biochemical; details: phage clone, 10^11 pfu; SjTGR 48 nM; vs activity of SjTGR without phage; repeated three times; P<0.01 vs phage library for JIPDys1, JIPDys2, JIPDys3
Experimental: as §1, with “[…],” for “10 μl (10^14 pfu/ml) of phage solution was added to the reaction system,”
as §2, §3

[4] = test system: GR of SjTGR (thioredoxin glutathione reductase of Schistosoma japonicum); assay: Inhibition of GR activity of SjTGR; type: biochemical; details: phage clone, 10^11 pfu; SjTGR 48 nM; vs activity of SjTGR without phage; repeated three times; P<0.01 vs phage library for JIPDys1, JIPDys2
Experimental: as §1, with “10 μl (10^14 pfu/ml) of phage solution was added to the reaction” left out
as §2, §3

[5] = test system: SjTGR; assay: Inhibition of SjTGR enzyme activity (TrxR, GR and Grx overall); type: biochemical, Schistosoma japonicum; details: JIPDys1 from phage screening
Experimental: as §1, §2

Sequence	Binding to SjTGR (ELISA OD450nm) [1]	Percentage of inhibition of Grx [2] [%]	Percentage of inhibition of TrxR [3] [%]	Percentage of inhibition of GR [4] [%]	Inhibition of SjTGR activity [5]	Binding capacity compared with the other phages ([1]; ELISA, phage titers 3.75 x 10^9 to 1.0 x 10^12 pfu/ml)
KHMHWHPPALNT [JIPDys4, M13 phage clone from Ph.D.-12 library displaying peptide …]	bound to SjTGR	1.23	0.73	1.50	–	–
LHAETRSAMHRT [JIPDys2, M13 phage clone from Ph.D.-12 library displaying peptide …]	bound to SjTGR	25.64	45.24	69.43	–	–
WPHNWWPHFKVK [JIPDys1, M13 phage clone from Ph.D.-12 library displaying peptide …]	bound to SjTGR	53.56	59.04	80.80	more than 50%	strongest binding capacity among those phages
YTMPSLTLYAMG [JIPDys3, M13 phage clone from Ph.D.-12 library displaying peptide …]	bound to SjTGR	43.02	54.72	20.88	–	–
